# Experiments:
# Assay in all cases: viability relative to DMSO control (fraction); higher = less drug effect (more viable cells)
# Settings in all cases: 48 h
# [1] = test system: primary ALL patient cells (S048)
# Method in brief: (§1)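 Viability was quantified by CellTiter-Glo luminescence and related to the median of 16 inner DMSO wells. Before that, primary mononuclear tumour cells, fresh or cryopreserved and Ficoll-isolated from blood or bone marrow or prepared from processed lymph node, were plated at 4 × 10^4 cells per well in 384-well plates containing pre-plated compounds at five concentrations, one well each. Plates were incubated in RPMI-1640 with penicillin/streptomycin, L-glutamine and human serum at 37 °C and 5% CO2 for 48 h.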
# [2] = test system: primary ALL patient cells (S088)
# Method in brief: as §1
# [3] = test system: primary AML patient cells (S009)
# Method in brief: as §1
# [4] = test system: primary AML patient cells (S055)
# Method in brief: as §1
# [5] = test system: primary AML patient cells (S056)
# Method in brief: as §1
# [6] = test system: primary AML patient cells (S060)
# Method in brief: as §1
# [7] = test system: primary AML patient cells (S071)
# Method in brief: as §1
# [8] = test system: primary AML patient cells (S072)
# Method in brief: as §1
# [9] = test system: primary AML patient cells (S079)
# Method in brief: as §1
# [10] = test system: primary B-PLL patient cells (S016)
# Method in brief: as §1
# [11] = test system: primary BL patient cells (S005)
# Method in brief: as §1
# [12] = test system: primary CLL patient cells (S031)
# Method in brief: as §1
# [13] = test system: primary DLBCL patient cells (S082)
# Method in brief: as §1
# [14] = test system: primary FL patient cells (S022)
# Method in brief: as §1
# [15] = test system: primary FL patient cells (S087)
# Method in brief: as §1
# [16] = test system: primary MCL patient cells (S041)
# Method in brief: as §1
# [17] = test system: primary MCL patient cells (S053)
# Method in brief: as §1
# [18] = test system: primary MCL patient cells (S063)
# Method in brief: as §1
# [19] = test system: primary MCL patient cells (S068)
# Method in brief: as §1
# [20] = test system: primary T-PLL patient cells (S008)
# Method in brief: as §1
smiles,measurement,setting,value
Nc1ccn([C@@H]2O[C@H](CO)[C@@H](O)[C@@H]2O)c(=O)n1 [Cytarabine],viability,[1]; 0.032 µM,0.974
same,viability,[1]; 0.16 µM,0.862
same,viability,[1]; 0.8 µM,0.561
same,viability,[1]; 4 µM,0.154
same,viability,[1]; 20 µM,0.0402
same,viability,[2]; 0.032 µM,1.08
same,viability,[2]; 0.16 µM,0.969
same,viability,[2]; 0.8 µM,0.676
same,viability,[2]; 4 µM,0.304
same,viability,[2]; 20 µM,0.138
same,viability,[3]; 0.032 µM,1.04
same,viability,[3]; 0.16 µM,0.96
same,viability,[3]; 0.8 µM,0.82
same,viability,[3]; 4 µM,0.521
same,viability,[3]; 20 µM,0.383
same,viability,[4]; 0.032 µM,1.02
same,viability,[4]; 0.16 µM,1.08
same,viability,[4]; 0.8 µM,0.818
same,viability,[4]; 4 µM,0.346
same,viability,[4]; 20 µM,0.189
same,viability,[5]; 0.032 µM,1.05
same,viability,[5]; 0.16 µM,1
same,viability,[5]; 0.8 µM,0.719
same,viability,[5]; 4 µM,0.177
same,viability,[5]; 20 µM,0.0767
same,viability,[6]; 0.032 µM,1.09
same,viability,[6]; 0.16 µM,1.02
same,viability,[6]; 0.8 µM,1.01
same,viability,[6]; 4 µM,0.505
same,viability,[6]; 20 µM,0.132
same,viability,[7]; 0.032 µM,0.891
same,viability,[7]; 0.16 µM,0.797
same,viability,[7]; 0.8 µM,0.64
same,viability,[7]; 4 µM,0.257
same,viability,[7]; 20 µM,0.172
same,viability,[8]; 0.032 µM,1.14
same,viability,[8]; 0.16 µM,1.06
same,viability,[8]; 0.8 µM,0.995
same,viability,[8]; 4 µM,0.774
same,viability,[8]; 20 µM,0.458
same,viability,[9]; 0.032 µM,1.07
same,viability,[9]; 0.16 µM,1.01
same,viability,[9]; 0.8 µM,0.781
same,viability,[9]; 4 µM,0.297
same,viability,[9]; 20 µM,0.0864
same,viability,[10]; 0.032 µM,1.11
same,viability,[10]; 0.16 µM,0.733
same,viability,[10]; 0.8 µM,0.145
same,viability,[10]; 4 µM,0.0425
same,viability,[10]; 20 µM,0.0373
same,viability,[11]; 0.032 µM,1.03
same,viability,[11]; 0.16 µM,1.02
same,viability,[11]; 0.8 µM,0.98
same,viability,[11]; 4 µM,0.969
same,viability,[11]; 20 µM,0.893
same,viability,[12]; 0.032 µM,1.15
same,viability,[12]; 0.16 µM,1.04
same,viability,[12]; 0.8 µM,0.706
same,viability,[12]; 4 µM,0.177
same,viability,[12]; 20 µM,0.0741
same,viability,[13]; 0.032 µM,1.08
same,viability,[13]; 0.16 µM,0.974
same,viability,[13]; 0.8 µM,0.702
same,viability,[13]; 4 µM,0.522
same,viability,[13]; 20 µM,0.484
same,viability,[14]; 0.032 µM,1.17
same,viability,[14]; 0.16 µM,1.04
same,viability,[14]; 0.8 µM,1.09
same,viability,[14]; 4 µM,0.93
same,viability,[14]; 20 µM,0.589
same,viability,[15]; 0.032 µM,1.03
same,viability,[15]; 0.16 µM,1.02
same,viability,[15]; 0.8 µM,0.959
same,viability,[15]; 4 µM,0.747
same,viability,[15]; 20 µM,0.628
same,viability,[16]; 0.032 µM,1.08
same,viability,[16]; 0.16 µM,1
same,viability,[16]; 0.8 µM,0.732
same,viability,[16]; 4 µM,0.21
same,viability,[16]; 20 µM,0.115
same,viability,[17]; 0.032 µM,1.01
same,viability,[17]; 0.16 µM,0.754
same,viability,[17]; 0.8 µM,0.327
same,viability,[17]; 4 µM,0.195
same,viability,[17]; 20 µM,0.136
same,viability,[18]; 0.032 µM,1.11
same,viability,[18]; 0.16 µM,1.08
same,viability,[18]; 0.8 µM,0.957
same,viability,[18]; 4 µM,0.489
same,viability,[18]; 20 µM,0.238
same,viability,[19]; 0.032 µM,1.1
same,viability,[19]; 0.16 µM,1.01
same,viability,[19]; 0.8 µM,0.807
same,viability,[19]; 4 µM,0.38
same,viability,[19]; 20 µM,0.209
same,viability,[20]; 0.032 µM,1.05
same,viability,[20]; 0.16 µM,0.968
same,viability,[20]; 0.8 µM,0.876
same,viability,[20]; 4 µM,0.434
same,viability,[20]; 20 µM,0.209
COc1cccc2c1C(=O)c1c(O)c3c(c(O)c1C2=O)C[C@@](O)(C(C)=O)C[C@@H]3O[C@H]1C[C@H](N)[C@H](O)[C@H](C)O1 [Daunorubicin],viability,[1]; 0.0016 µM,1.02
same,viability,[1]; 0.008 µM,0.731
same,viability,[1]; 0.04 µM,0.12
same,viability,[1]; 0.2 µM,0.0694
same,viability,[1]; 1 µM,0.0144
same,viability,[2]; 0.0016 µM,1.13
same,viability,[2]; 0.008 µM,0.849
same,viability,[2]; 0.04 µM,0.235
same,viability,[2]; 0.2 µM,0.0841
same,viability,[2]; 1 µM,0.0273
same,viability,[3]; 0.0016 µM,1.1
same,viability,[3]; 0.008 µM,0.833
same,viability,[3]; 0.04 µM,0.722
same,viability,[3]; 0.2 µM,0.378
same,viability,[3]; 1 µM,0.0702
same,viability,[4]; 0.0016 µM,1.03
same,viability,[4]; 0.008 µM,1.05
same,viability,[4]; 0.04 µM,0.991
same,viability,[4]; 0.2 µM,0.904
same,viability,[4]; 1 µM,0.0407
same,viability,[5]; 0.0016 µM,0.96
same,viability,[5]; 0.008 µM,0.881
same,viability,[5]; 0.04 µM,0.258
same,viability,[5]; 0.2 µM,0.146
same,viability,[5]; 1 µM,0.0683
same,viability,[6]; 0.0016 µM,1.16
same,viability,[6]; 0.008 µM,1.14
same,viability,[6]; 0.04 µM,1.07
same,viability,[6]; 0.2 µM,1.14
same,viability,[6]; 1 µM,0.0333
same,viability,[7]; 0.0016 µM,1.04
same,viability,[7]; 0.008 µM,0.272
same,viability,[7]; 0.04 µM,0.128
same,viability,[7]; 0.2 µM,0.118
same,viability,[7]; 1 µM,0.095
same,viability,[8]; 0.0016 µM,1.18
same,viability,[8]; 0.008 µM,1.04
same,viability,[8]; 0.04 µM,0.844
same,viability,[8]; 0.2 µM,0.589
same,viability,[8]; 1 µM,0.0642
same,viability,[9]; 0.0016 µM,1.03
same,viability,[9]; 0.008 µM,1.08
same,viability,[9]; 0.04 µM,0.78
same,viability,[9]; 0.2 µM,0.659
same,viability,[9]; 1 µM,0.0276
same,viability,[10]; 0.0016 µM,1.21
same,viability,[10]; 0.008 µM,0.74
same,viability,[10]; 0.04 µM,0.0721
same,viability,[10]; 0.2 µM,0.0359
same,viability,[10]; 1 µM,0.0137
same,viability,[11]; 0.0016 µM,1.06
same,viability,[11]; 0.008 µM,1.09
same,viability,[11]; 0.04 µM,1.02
same,viability,[11]; 0.2 µM,0.929
same,viability,[11]; 1 µM,0.716
same,viability,[12]; 0.0016 µM,0.982
same,viability,[12]; 0.008 µM,0.809
same,viability,[12]; 0.04 µM,0.265
same,viability,[12]; 0.2 µM,0.0431
same,viability,[12]; 1 µM,0.0162
same,viability,[13]; 0.0016 µM,1.1
same,viability,[13]; 0.008 µM,1.07
same,viability,[13]; 0.04 µM,0.838
same,viability,[13]; 0.2 µM,0.714
same,viability,[13]; 1 µM,0.0208
same,viability,[14]; 0.0016 µM,0.966
same,viability,[14]; 0.008 µM,0.964
same,viability,[14]; 0.04 µM,0.803
same,viability,[14]; 0.2 µM,0.331
same,viability,[14]; 1 µM,0.304
same,viability,[15]; 0.0016 µM,1.13
same,viability,[15]; 0.008 µM,1.03
same,viability,[15]; 0.04 µM,0.856
same,viability,[15]; 0.2 µM,0.693
same,viability,[15]; 1 µM,0.588
same,viability,[16]; 0.0016 µM,1.16
same,viability,[16]; 0.008 µM,1.11
same,viability,[16]; 0.04 µM,0.931
same,viability,[16]; 0.2 µM,0.323
same,viability,[16]; 1 µM,0.0341
same,viability,[17]; 0.0016 µM,1.12
same,viability,[17]; 0.008 µM,0.692
same,viability,[17]; 0.04 µM,0.363
same,viability,[17]; 0.2 µM,0.307
same,viability,[17]; 1 µM,0.446
same,viability,[18]; 0.0016 µM,1.2
same,viability,[18]; 0.008 µM,1.14
same,viability,[18]; 0.04 µM,0.979
same,viability,[18]; 0.2 µM,0.528
same,viability,[18]; 1 µM,0.0178
same,viability,[19]; 0.0016 µM,1.18
same,viability,[19]; 0.008 µM,0.943
same,viability,[19]; 0.04 µM,0.449
same,viability,[19]; 0.2 µM,0.252
same,viability,[19]; 1 µM,0.0233
same,viability,[20]; 0.0016 µM,1.08
same,viability,[20]; 0.008 µM,1.09
same,viability,[20]; 0.04 µM,0.947
same,viability,[20]; 0.2 µM,0.82
same,viability,[20]; 1 µM,0.0568
